Source: patent US9695155B2, “Herbicidal substituted pyrimidinyloxy benzene compounds” (E. I. DU PONT DE NEMOURS AND COMPANY, priority 2013, dated 2017)

Assays:
[1] = test system: Italian ryegrass; assay: Test A preemergence; format: in vivo, Lolium multiflorum
How it was run: (§1)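 Scoring: eye-based comparison with untreated controls, 0 for no effect through 100 for complete control, at about day 10. Treatments: directed soil spray preemergence; foliar spray postemergence on 2–10 cm plants at the one- to two-leaf stage. Medium: loam soil with sand.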

[2] = test system: ragweed; assay: Test A postemergence; format: in vivo, Ambrosia elatior; conditions: 0 to 100 scale where 0 is no effect and 100 is complete control
How it was run: as §1

[3] = test system: Italian ryegrass; assay: Test A postemergence; format: in vivo, Lolium multiflorum; conditions: 0 to 100 scale where 0 is no effect and 100 is complete control
How it was run: as §1

[4] = test system: galium; assay: Test A postemergence; format: in vivo, Galium aparine; conditions: 0 to 100 scale where 0 is no effect and 100 is complete control
How it was run: as §1

[5] = test system: rice; assay: Test C flooded paddy test; format: in vivo, Oryza sativa; conditions: Flood, scale 0 to 100 (0 no effect, 100 complete control), 13 to 15 days
How it was run: (§2)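 Test compounds are applied straight into paddy water held 3 cm above the soil surface, with that flood maintained for the whole test. After 13 to 15 days in the greenhouse, each species is scored visually relative to controls.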

[6] = test system: sedge, umbrella; assay: Test C flooded paddy test; format: in vivo, Cyperus difformis; conditions: Flood, scale 0 to 100 (0 no effect, 100 complete control), 13 to 15 days
How it was run: as §2

[7] = test system: barnyardgrass; assay: Test C flooded paddy test; format: in vivo, Echinochloa crus-galli; conditions: Flood, scale 0 to 100 (0 no effect, 100 complete control), 13 to 15 days
How it was run: as §2

[8] = test system: corn; assay: Test E preemergence; format: in vivo, Zea mays; conditions: for Corn plant response rating: scale 0 to 100 (0 no effect, 100 complete control); for Plant response rating, Corn: scale 0 to 100, 0 no effect, 100 complete control
How it was run: (§3)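 Compound in a non-phytotoxic solvent mixture with surfactant was applied preemergence to seeds in silt loam soil, or postemergence to plants 2 to 18 cm tall grown in peat-based potting medium. Plants were kept in a greenhouse for 14 to 21 days, then rated visually against untreated controls on a 0 (no effect) to 100 (complete control) scale.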

[9] = test system: giant foxtail; assay: Test E preemergence; format: in vivo, Setaria faberii; conditions: for Foxtail, Giant plant response rating: scale 0 to 100 (0 no effect, 100 complete control); for Plant response rating, Foxtail, Giant: scale 0 to 100, 0 no effect, 100 complete control
How it was run: as §3

[10] = test system: goosegrass; assay: Test E preemergence; format: in vivo, Eleusine indica; conditions: for Goosegrass plant response rating: scale 0 to 100 (0 no effect, 100 complete control); for Plant response rating, Goosegrass: scale 0 to 100, 0 no effect, 100 complete control
How it was run: as §3

[11] = test system: johnsongrass; assay: Test E preemergence; format: in vivo, Sorghum halepense; conditions: for Johnsongrass plant response rating: scale 0 to 100 (0 no effect, 100 complete control); for Plant response rating, Johnsongrass: scale 0 to 100, 0 no effect, 100 complete control
How it was run: as §3

[12] = test system: barnyardgrass; assay: Test E preemergence; format: in vivo, Echinochloa crus-galli; conditions: for Plant response rating, Barnyardgrass: scale 0 to 100, 0 no effect, 100 complete control
How it was run: as §3

[13] = test system: arrowleaf sida; assay: Test E preemergence; format: in vivo, Sida rhombifolia; conditions: for Plant response rating, Arrowleaf Sida: scale 0 to 100, 0 no effect, 100 complete control
How it was run: as §3

[14] = test system: field bindweed; assay: Test E preemergence; format: in vivo, Convolvulus arvensis; conditions: for Field Bindweed plant response rating: scale 0 to 100 (0 no effect, 100 complete control); for Plant response rating, Field Bindweed: scale 0 to 100, 0 no effect, 100 complete control
How it was run: as §3

[15] = test system: morningglory; assay: Test E preemergence; format: in vivo, Ipomoea coccinea; conditions: for Morningglory plant response rating: scale 0 to 100 (0 no effect, 100 complete control); for Plant response rating, Morningglory: scale 0 to 100, 0 no effect, 100 complete control
How it was run: as §3

[16] = 31 g ai/ha, preemergence, scale 0 to 100 (0 no effect, 100 complete control)

## CCOc1cnn(-c2c(C#N)cccc2Oc2ncc(F)cn2)c1 [Compound 89]
[1]; 125 g ai/ha, 0 to 100 scale where 0 is no effect and 100 is complete control
  Plant response rating, Ryegrass, Italian: 0
[1]; 500 g ai/ha, 0 to 100 scale, 0 no effect, 100 complete control, approx. 10 days
  Ryegrass, Italian plant response rating: 10
[2]; 125 g ai/ha
  Plant response rating, Ragweed: 30
[2]; 500 g ai/ha
  Plant response rating, Ragweed: 90
[3]; 125 g ai/ha
  Plant response rating, Ryegrass, Italian: 0
[3]; 500 g ai/ha
  Plant response rating, Ryegrass, Italian: 90
[4]; 125 g ai/ha
  Plant response rating, Galium: 90
[4]; 500 g ai/ha
  Plant response rating, Galium: 90
[5]; 62 g ai/ha
  Plant response rating, Rice: 0
[5]; 125 g ai/ha
  Plant response rating, Rice: 0
[5]; 250 g ai/ha
  Plant response rating, Rice: 0
[6]; 62 g ai/ha
  Plant response rating, Sedge, Umbrella: 0
[6]; 125 g ai/ha
  Plant response rating, Sedge, Umbrella: 50
[6]; 250 g ai/ha
  Plant response rating, Sedge, Umbrella: 70
[7]; 62 g ai/ha
  Plant response rating, Barnyardgrass: 0
[7]; 125 g ai/ha
  Plant response rating, Barnyardgrass: 15
[7]; 250 g ai/ha
  Plant response rating, Barnyardgrass: 20
[8]; 31 g ai/ha
  Corn plant response rating: 0
[8]; 62 g ai/ha
  Corn plant response rating: 0
[8]; 125 g ai/ha
  Plant response rating, Corn: 30
[8]; 250 g ai/ha
  Plant response rating, Corn: 70
[9]; 31 g ai/ha
  Foxtail, Giant plant response rating: 0
[9]; 62 g ai/ha
  Foxtail, Giant plant response rating: 20
[9]; 125 g ai/ha
  Plant response rating, Foxtail, Giant: 65
[9]; 250 g ai/ha
  Plant response rating, Foxtail, Giant: 100
[10]; 31 g ai/ha
  Goosegrass plant response rating: 0
[10]; 62 g ai/ha
  Goosegrass plant response rating: 0
[10]; 125 g ai/ha
  Plant response rating, Goosegrass: 5
[10]; 250 g ai/ha
  Plant response rating, Goosegrass: 50
[11]; 31 g ai/ha
  Johnsongrass plant response rating: 0
[11]; 62 g ai/ha
  Johnsongrass plant response rating: 10
[11]; 125 g ai/ha
  Plant response rating, Johnsongrass: 50
[11]; 250 g ai/ha
  Plant response rating, Johnsongrass: 100
[12]; [16]
  Barnyardgrass plant response rating: 0
[12]; Preemergence, 62 g ai/ha
  Plant response rating, Barnyardgrass: 20
[12]; preemergence, 125 g ai/ha
  Plant response rating, Barnyardgrass: 70
[12]; preemergence, 250 g ai/ha
  Plant response rating, Barnyardgrass: 98
[13]; [16]
  Arrowleaf Sida plant response rating: 50
[13]; Preemergence, 62 g ai/ha
  Plant response rating, Arrowleaf Sida: 75
[13]; preemergence, 125 g ai/ha
  Plant response rating, Arrowleaf Sida: 100
[13]; preemergence, 250 g ai/ha
  Plant response rating, Arrowleaf Sida: 100
[14]; 31 g ai/ha
  Field Bindweed plant response rating: 35
[14]; 62 g ai/ha
  Field Bindweed plant response rating: 75
[14]; 125 g ai/ha
  Plant response rating, Field Bindweed: 95
[14]; 250 g ai/ha
  Plant response rating, Field Bindweed: 90
[15]; 31 g ai/ha
  Morningglory plant response rating: 30
[15]; 62 g ai/ha
  Morningglory plant response rating: 65
[15]; 125 g ai/ha
  Plant response rating, Morningglory: 75
[15]; 250 g ai/ha
  Plant response rating, Morningglory: 100
